The results in this text go back to ChEMBL document CHEMBL1139279, “3,4-Disubstituted indole acylsulfonamides: a novel series of potent and selective human EP3 receptor antagonists” (Bioorg Med Chem Lett, 2009).

Data set [1] in a line: Metabolic stability in human liver microsomes at 5 uM after 30 mins. In kind it is ADME, Microsome. As to conditions: read-out: Activity.
Data set [2] has as its system Liver microsomes. The experiment in a line: Metabolic stability in rat liver microsomes at 5 uM after 30 mins. It counts as ADME, Microsome. As to conditions: 0.5 h. For orientation: Microsomes from liver hold many membrane-bound enzymes, among them those of drug oxidation.
Data set [3] concerns the target T1, Prostaglandin E2 receptor EP3 subtype (Homo sapiens, UniProt P43115).
T1 sequence (P43115 whole entry): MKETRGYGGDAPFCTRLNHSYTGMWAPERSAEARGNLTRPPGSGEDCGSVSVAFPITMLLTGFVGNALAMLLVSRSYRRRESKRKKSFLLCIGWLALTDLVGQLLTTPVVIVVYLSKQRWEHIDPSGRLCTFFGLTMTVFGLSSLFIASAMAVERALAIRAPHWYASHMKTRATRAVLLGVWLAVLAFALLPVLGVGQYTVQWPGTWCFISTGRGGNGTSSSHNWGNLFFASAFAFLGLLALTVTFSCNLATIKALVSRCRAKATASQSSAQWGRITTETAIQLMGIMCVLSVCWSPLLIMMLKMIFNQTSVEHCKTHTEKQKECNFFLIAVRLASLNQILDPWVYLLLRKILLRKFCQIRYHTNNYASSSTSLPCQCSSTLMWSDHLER
Kind of data set: Displacement of [3H]PGE2 from human EP3 receptor. (In general: Loss of bound radioactivity is the signal in a displacement assay; it reports binding, not function.)

Data set [4] concerns the target T1, Prostaglandin E2 receptor EP3 subtype. The experiment in a line: Displacement of [3H]PGE2 from human EP3 receptor in presence of 10% human serum.
Data set [5] is filed under the species Homo sapiens. Kind of data set: Selectivity ratio of IC50 for human IP receptor to IC50 for human EP3 receptor.
For data set [6], the species on record is Homo sapiens. The experiment in a line: Selectivity ratio of IC50 for human FP receptor to IC50 for human EP3 receptor.
Data set [7] is filed under the species Homo sapiens. Kind of data set: Selectivity ratio of IC50 for human EP4 receptor to IC50 for human EP3 receptor.
The species entered for data set [8] is Homo sapiens. Kind of data set: Selectivity ratio of IC50 for human EP2 receptor to IC50 for human EP3 receptor.
The species entered for data set [9] is Homo sapiens. Kind of data set: Selectivity ratio of IC50 for human EP1 receptor to IC50 for human EP3 receptor.
In data set [10] the target is T2, Prostaglandin E2 receptor EP3 subtype (Mus musculus, UniProt P30557).
T2 sequence (P30557 whole entry): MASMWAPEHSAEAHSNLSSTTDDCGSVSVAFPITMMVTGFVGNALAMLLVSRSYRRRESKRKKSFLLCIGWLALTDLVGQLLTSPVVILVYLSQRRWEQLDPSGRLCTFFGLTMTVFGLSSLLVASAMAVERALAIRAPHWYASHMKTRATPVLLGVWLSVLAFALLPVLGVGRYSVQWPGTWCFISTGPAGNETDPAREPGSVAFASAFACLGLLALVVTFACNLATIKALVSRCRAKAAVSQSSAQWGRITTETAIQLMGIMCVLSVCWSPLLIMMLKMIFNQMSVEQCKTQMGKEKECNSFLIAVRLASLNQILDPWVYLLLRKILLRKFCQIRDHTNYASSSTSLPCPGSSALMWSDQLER
Kind of data set: Displacement of [3H]PGE2 from mouse EP3 receptor.

Data set [11] is filed under the species Rattus norvegicus. The experiment in a line: Ex vivo inhibition of platelet aggregation in rat platelet-rich plasma. In kind it is functional, organism-based.
In data set [12] the target is T1, Prostaglandin E2 receptor EP3 subtype. Kind of data set: Antagonist activity at human EP3 receptor assessed as cAMP production by cell-based assay. In kind it is functional. For orientation: Changes in cAMP serve as a functional read-out for many G protein-coupled receptors.

pIC50: −log10 of the molar value.

Consider `O=C(COc1cccc2[nH]cc(S(=O)(=O)c3ccc4ccccc4n3)c12)NS(=O)(=O)c1cc(Cl)c(Cl)s1`, for which the remaining at 0.5 h, 5 µM in data set [1] was 60%. Moreover, the Activity in [2] is 68%.
With `O=C(COc1cccc2[nH]cc(Sc3ccc4ccccc4n3)c12)NS(=O)(=O)c1cc(Cl)c(Cl)s1`, in data set [1], the remaining at 0.5 h, 5 µM came to 23%. The molecule further showed an Activity in data set [2] of 35%.
Consider `O=C(COc1cccc2[nH]cc(S(=O)(=O)c3ccc(Cl)cc3)c12)NS(=O)(=O)c1cc(Cl)c(Cl)s1`, for which the remaining at 0.5 h, 5 µM in data set [1] was determined as 75%. The molecule further had an Activity in [2] of 98%.
The pIC50 is −log10 of the IC50, conventionally taken in molar units. Regarding `COc1ccc(S(=O)(=O)NC(=O)COc2cccc3[nH]cc(S(=O)(=O)c4ccc5ccccc5c4)c23)cc1`, the pIC50 in data set [3] was 6.26.
With `O=C(COc1cccc2[nH]cc(S(=O)(=O)c3ccc(Cl)c(Cl)c3)c12)NS(=O)(=O)c1cc(Cl)c(Cl)s1`, the pIC50 in [3] was 8.33; in data set [10] it was 8.70; in data set [11] it was 6.87; in [12] it was 9.00. In [4], the fold shift was 3.6. Further, the Ratio IC50 is 2710 in data set [5]; 384 in [6]; 4220 in data set [7]; 1450 in data set [8]; 5190 in [9]. In [1], the remaining at 0.5 h, 5 µM amounted to 69.7%. For the same molecule, in data set [2], the Activity turned out to be 68.8%.
Molecule `Cc1ccc(Sc2c[nH]c3cccc(OCC(=O)NS(=O)(=O)c4cc(Cl)c(Cl)s4)c23)c(C)c1` showed a pIC50 in [3] of 8.89. In addition, the fold shift in data set [4] is 5.2. In addition, the Ratio IC50 in data set [5] was found to be 31600; in [6], 401; in data set [7] it was 1860; in [8], 1290; in data set [9] it was 13100.
With `O=C(COc1cccc2[nH]cc(Sc3ccc4ccccc4c3)c12)NS(=O)(=O)c1cccc(Cl)c1`, the pIC50 in data set [3] was 8.70. For the same molecule, the fold shift in data set [4] was found to be 2.2. Besides, the Ratio IC50 was determined as 1300 in [5]; 1030 in data set [6]; 1360 in data set [7]; 1090 in data set [8]; 12300 in [9].
As for `COc1ccc(S(=O)(=O)c2c[nH]c3cccc(OCC(=O)NS(=O)(=O)c4cc(Cl)c(Cl)s4)c23)cc1`, the pIC50 in data set [3] is 7.52.
With `Cn1c(Sc2c[nH]c3cccc(OCC(=O)NS(=O)(=O)c4cc(Cl)c(Cl)s4)c23)nc2ccccc21`, the pIC50 in [3] is 8.60. Also, the fold shift in data set [4] was determined as 10.5.
Turning to `O=C(COc1cccc2[nH]cc(S(=O)(=O)c3nc[nH]n3)c12)NS(=O)(=O)c1cc(Cl)c(Cl)s1`, in data set [3], the pIC50 is 6.63.
As to `O=C(COc1cccc2[nH]cc(S(=O)(=O)c3ccc(Cl)cc3Cl)c12)NS(=O)(=O)c1cc(Cl)c(Cl)s1`, the remaining at 0.5 h, 5 µM in data set [1] was found to be 79%. This molecule also returned an Activity in data set [2] of 72%.
Consider `O=C(COc1cccc2[nH]cc(Sc3ccc(Cl)cc3)c12)NS(=O)(=O)c1cc(Cl)c(Cl)s1`, for which, in data set [1], the remaining at 0.5 h, 5 µM was 52%. In data set [2], this molecule gave an Activity of 14%.
The molecule `Cc1nnc(Sc2c[nH]c3cccc(OCC(=O)NS(=O)(=O)c4cc(Cl)c(Cl)s4)c23)s1` showed a pIC50 in [3] of 7.44.
In [3], `O=C(COc1cccc2[nH]cc(Sc3ccc4ccccc4c3)c12)NS(=O)(=O)c1cccs1` gave a pIC50 of 8.52. Further, the fold shift in data set [4] is 27.5.
Turning to `O=C(COc1cccc2[nH]cc(Sc3nc4ccccc4s3)c12)NS(=O)(=O)c1cc(Cl)c(Cl)s1`, in data set [3], the pIC50 was 8.12. The fold shift in [4] stood at 9.8. The Ratio IC50 in data set [5] stood at 1060; in [6], 300; in [7], 2390; in [8] it was 1660.
`COc1ccc(S(=O)(=O)c2c[nH]c3cccc(OCC(=O)NS(=O)(=O)c4cc(Cl)c(Cl)s4)c23)cc1OC` showed a pIC50 in data set [3] of 7.94.
`O=C(COc1cccc2[nH]cc(S(=O)(=O)c3ccc4ccccc4c3)c12)NS(=O)(=O)c1cccc(Cl)c1` had a negative-log IC50 (pIC50) in [3] of 8.23.
In data set [3], `Cn1nnnc1S(=O)(=O)c1c[nH]c2cccc(OCC(=O)NS(=O)(=O)c3cc(Cl)c(Cl)s3)c12` showed a negative-log IC50 (pIC50) of 7.05.
In turn, `Cn1nnnc1Sc1c[nH]c2cccc(OCC(=O)NS(=O)(=O)c3cc(Cl)c(Cl)s3)c12` gave a pIC50 in data set [3] of 8.09. Also, the fold shift in [4] came to 58.3.
`O=C(COc1cccc2[nH]cc(Sc3ccccc3Cl)c12)NS(=O)(=O)c1cc(Cl)c(Cl)s1` gave a pIC50 in [3] of 7.86. In [4], the fold shift is 5.8.
In data set [3], `O=C(COc1cccc2[nH]cc(Sc3ccc4ccccc4c3)c12)NS(=O)(=O)c1ccccc1Cl` had a pIC50 of 8.85. In addition, the fold shift in data set [4] was found to be 48.7.
Turning to `Cc1ccc(S(=O)(=O)c2c[nH]c3cccc(OCC(=O)NS(=O)(=O)c4cc(Cl)c(Cl)s4)c23)c(C)c1`, the pIC50 in data set [3] was 8.24. Moreover, the fold shift in data set [4] was 33.2.
In turn, `COc1ccccc1Sc1c[nH]c2cccc(OCC(=O)NS(=O)(=O)c3cc(Cl)c(Cl)s3)c12` showed a pIC50 in data set [3] of 7.62. For the same molecule, in data set [4], the fold shift was determined as 13.2.
On to `COc1ccc(Sc2c[nH]c3cccc(OCC(=O)NS(=O)(=O)c4cc(Cl)c(Cl)s4)c23)cc1`, for which the pIC50 in [3] was 9.30. In addition, the fold shift in data set [4] amounted to 22.6.
`O=C(COc1cccc2[nH]cc(Sc3ccc(Cl)cc3Cl)c12)NS(=O)(=O)c1cc(Cl)c(Cl)s1` had a pIC50 in data set [3] of 7.56. The fold shift in data set [4] was 0.2. Also, the Ratio IC50 in data set [5] was found to be 3350; in data set [6] it was 2030; in data set [7], 8880; in [8], 6230; in data set [9], 3520. The remaining at 0.5 h, 5 µM in data set [1] is 37%. Moreover, the Activity in data set [2] came to 0%.
Turning to `O=C(COc1cccc2[nH]cc(Sc3ccc(Cl)c(Cl)c3)c12)NS(=O)(=O)c1cc(Cl)c(Cl)s1`, the pIC50 in data set [3] was 8.89; in data set [10] it was 7.81; in [11] it was 6.45; in data set [12], 9.52. In data set [4], the fold shift is 1.1. For the same molecule, the Ratio IC50 in data set [5] was 4480; in data set [6] it was 596; in data set [7], 1770; in data set [8] it was 950; in data set [9], 10800. In addition, the remaining at 0.5 h, 5 µM in data set [1] turned out to be 46%. Moreover, in [2], the Activity is reported as 74%.
Take `NC(=O)Cc1ccc(S(=O)(=O)c2c[nH]c3cccc(OCC(=O)NS(=O)(=O)c4cc(Cl)c(Cl)s4)c23)cc1`: in [3], the negative-log IC50 (pIC50) is 7.56. Besides, the fold shift in [4] worked out at 5.
`O=C(COc1cccc2[nH]cc(S(=O)(=O)c3ccc(F)cc3Cl)c12)NS(=O)(=O)c1cc(Cl)c(Cl)s1` had a negative-log IC50 (pIC50) in data set [3] of 7.69. In data set [4], the fold shift amounted to 10.7.
